From publication PMC6278366, “Synthesis and Evaluation of Anticancer Activities of Novel C-28 Guanidine-Functionalized Triterpene Acid Derivatives” (Molecules, 2018)
Structures can show the parent of a compound that is named as a salt.

Test system: Jurkat cells
Test: Annexin V/7-AAD apoptosis assay by flow cytometry
Assay type: cell-based, human
Conditions: 48 h
Experimental: Apoptosis was determined by flow cytometric analysis of Annexin V and 7-aminoactinomycin D staining. Briefly, 200 μL of Guava Nexin reagent (Millipore, Bedford, MA, USA) was added to 5 × 10^5 cells in 200 μL, and the cells were incubated with the reagent for 20 min at room temperature in the dark. […] At the end of incubation, the cells were analyzed on NovoCyteTM 2000 FlowCytometry System (ACEA). Different states of cell death were defined as follows: normal cells are localized in the lower-left quadrant (Annexin V^−/PI^−); early apoptotic cells are in the lower-right quadrant (Annexin V^+/PI^−); late apoptotic cells and necrotic cells are in the upper-right quadrant (Annexin V^+/PI^+); and necrotic cells are in the upper-left quadrant (Annexin V^−/PI^+).
Figure 2 AnnexinV/7-AAD staining upon induction of apoptosis in Jurkat cells. […] Then, the cells were harvested, stained with Annexin V/7-AAD and analyzed by flow cytometry. The experiments were performed three times, and the results of the representative experiments are shown. The first cytogram represents an untreated cell sample (A); after incubation with dihydrobetulinic acid for 24 h (B) and for 48 h (C); after incubation with compound 15 for 24 h (D) and for 48 h (E); after incubation with compound 15c for 24 h (F) and for 48 h (G); after incubation with compound 18c for 24 h (H) and for 48 h (I); after incubation with compound 20c for 24 h (J) and for 48 h (K). Q7-1, necrotic cells; Q7-2, late apoptotic cells; Q7-3, living cells; Q7-4, early apoptotic cells. TEXT PRINTED IN THE PICTURE: (B) Dihydro BA: Q7-1 0.96% (59 μM); Q7-2 12.11% (59 μM); Q7-3 80.09% (59 μM); Q7-4 6.84% (59 μM) | (C) Dihydro BA: Q7-1 2.34% (59 μM); Q7-2 20.53% (59 μM); Q7-3 73.11% (59 μM); Q7-4 4.02% (59 μM) | (D) Compound 15: Q7-1 3.08% (4 μM); Q7-2 2.24% (4 μM); Q7-3 92.34% (4 μM); Q7-4 2.34% (4 μM) | (E) Compound 15: Q7-1 5.53% (4 μM); Q7-2 91.79% (4 μM); Q7-3 0.58% (4 μM); Q7-4 2.10% (4 μM) | (F) Compound 15c: Q7-1 1.51% (4 μM); Q7-2 2.64% (4 μM); Q7-3 84.92% (4 μM); Q7-4 10.93% (4 μM) | (G) Compound 15c: Q7-1 21.72% (4 μM); Q7-2 16.54% (4 μM); Q7-3 54.49% (4 μM); Q7-4 7.25% (4 μM) | (H) Compound 18c: Q7-1 1.48% (4 μM); Q7-2 3.70% (4 μM); Q7-3 91.14% (4 μM); Q7-4 3.67% (4 μM) | (I) Compound 18c: Q7-1 20.73% (4 μM); Q7-2 14.32% (4 μM); Q7-3 58.16% (4 μM); Q7-4 6.79% (4 μM) | (J) Compound 20c: Q7-1 3.78% (8 μM); Q7-2 1.72% (8 μM); Q7-3 92.26% (8 μM); Q7-4 2.24% (8 μM) | (K) Compound 20c: Q7-1 6.09% (8 μM); Q7-2 7.35% (8 μM); Q7-3 78.36% (8 μM); Q7-4 8.20% (8 μM) DOUBTS OF THE COPYIST ABOUT THIS PICTURE: Panel A (Control, untreated cells: Q7-1 3.75%, Q7-2 0.00%, Q7-3 96.24%, Q7-4 0.01%) left out of lines because it is not a substance / Dihydro BA panel B, Q7-3: 80.09% partly overlaid by plot points, 80.09 or 80.03 / Dihydro BA panel C, Q7-3: 73.11% partly overlaid by plot points / Compound 18c panel I, Q7-3: 58.16% small print, 58.16 or 58.18 / Compound 15 panel E, Q7-3: 0.58% small print, 0.58 or 0.56

[1] = at IC50 concentration (59 μM Dihydro BA; 4 μM 15, 15c, 18c; 8 μM 20c)

| Compound | late apoptotic cells (Q7-2) [1] [%] | early apoptotic cells (Q7-4) [1] [%] | living (vital) cells (Q7-3) [1] [%] | necrotic cells (Q7-1) [1] [%] | total number of apoptotic cells (early + late) (at IC50 concentration (59 μM Dihydro BA; 4 μM 15c; 8 μM 20c)) [%] |
| --- | --- | --- | --- | --- | --- |
| CC(=O)O[C@H]1CC[C@@]2(C)C(CC[C@]3(C)C2CCC2C4C(C(C)C)CC[C@]4(C(=O)OCC(N)(CO)CO)CC[C@]23C)C1(C)C (stereo partly drawn) [Compound 15, 3β-[2-Amino-3-hydroxy-2-(hydroxymethyl)propyl]-3-O-acetyl-lupane-28-oate] | 91.7 |  |  |  |  |
| CC(=O)O[C@H]1CC[C@@]2(C)C(CC[C@]3(C)C2CCC2C4C(C(C)C)CC[C@]4(C(=O)OCC(CO)(CO)NC(=N)N)CC[C@]23C)C1(C)C (stereo partly drawn) [Compound 15c, 3β-[2-Guanidine-3-hydroxy-2-(hydroxymethyl)propyl]-3-O-acetyl-lupane-28-oate hydrochloride] | 16.5 | 7.2 | 54.5 | 21.7 | 23.7 |
